Results published in patent US20140038989A1, “TETRAHYDROPYRAZOLO [1,5-A] PYRIMIDINE AS ANTI-TUBERCULOSIS COMPOUNDS” (Glaxo Group Limited, priority 2011, published 2014).
≈ marks a conversion by molar mass, not a printed value.

Test system: Mycobacterium tuberculosis H37Rv
Experiment: Mycobacterium tuberculosis H37Rv Inhibition Assay (Whole Cell Assay)
Type: cell-based
Conditions: ATCC 25618 / H37Rv, H37Rv strain (ATCC25618), Middlebrook 7H9, six days at 37° C., resazurin fluorescence after 48 hours

Row | SMILES | MIC
1 | CCc1ccc([C@H]2C[C@@H](C)n3ncc(C(=O)NCc4ccc(OC)cc4)c3N2)cc1 (relative stereo) [Example 23, Cis-5-(4-ethylphenyl)-7-methyl-N-{[4-(methyloxy)phenyl]methyl}-4,5,6,7-tetrahydropyrazolo[1,5-a]pyrimidine-3-carboxamide] | ≤ 1 µM
2 | CCc1ccc([C@H]2C[C@@H](C(F)(F)F)n3ncc(C(=O)NCc4ccc(Cl)cn4)c3N2)cc1 (relative stereo) [Example 75, Cis-N-((5-chloropyridin-2-yl)methyl)-5-(4-ethylphenyl)-7-(trifluoromethyl)-4,5,6,7-tetrahydropyrazolo[1,5-a]pyrimidine-3-carboxamide] | 1 to 2 µM (≈ 0.464 to 0.928 µg/mL)
3 | CCc1ccc([C@H]2C[C@@H](C(C)C)n3ncc(C(=O)NCc4ccc(OC)cc4)c3N2)cc1 (relative stereo) [Example 71, Cis-5-(4-ethylphenyl)-7-isopropyl-N-(4-methoxybenzyl)-4,5,6,7-tetrahydropyrazolo[1,5-a]pyrimidine-3-carboxamide] | ≤ 1 µM
4 | Cc1ccc(C2CC(C(F)F)n3ncc(C(=O)NCc4ccccc4C(F)(F)F)c3N2)cc1 (stereo not drawn) [Example 55, 7-(difluoromethyl)-5-(p-tolyl)-N-(2-(trifluoromethyl)benzyl)-4,5,6,7-tetrahydropyrazolo[1,5-a]pyrimidine-3-carboxamide] | > 2 µM
5 | CCc1ccc([C@H]2C[C@@H](C(C)(F)F)n3ncc(C(=O)NCc4ccc(C)cc4)c3N2)cc1 (relative stereo) [Example 68, Cis-7-(1,1-difluoroethyl)-5-(4-ethylphenyl)-N-(4-methylbenzyl)-4,5,6,7-tetrahydropyrazolo[1,5-a]pyrimidine-3-carboxamide] | ≤ 1 µM
6 | CCc1ccc([C@H]2C[C@@H](C(F)(F)F)n3ncc(C(=O)NCc4cccn4C)c3N2)cc1 (relative stereo) [Example 10, Cis-5-(4-ethylphenyl)-N-[(1-methyl-1H-pyrrol-2-yl)methyl]-7-(trifluoromethyl)-4,5,6,7-tetrahydropyrazolo[1,5-a]pyrimidine-3-carboxamide] | 1 to 2 µM (≈ 0.431 to 0.863 µg/mL)
7 | O=C(NCc1ccco1)c1cnn2c1NC(c1ccc(Br)cc1)CC2C(F)(F)F (stereo not drawn) [57′, 5-(4-bromophenyl)-N-(furan-2-ylmethyl)-7-(trifluoromethyl)-4,5,6,7-tetrahydropyrazolo[1,5-a]pyrimidine-3-carboxamide, reference compound] | > 2 µM
8 | Cc1ccc(CNC(=O)c2cnn3c2N[C@@H](c2ccc(Br)cc2)C[C@H]3C(F)(F)F)cc1 (relative stereo) [Example 21, Cis-5-(4-bromophenyl)-N-(4-methylbenzyl)-7-(trifluoromethyl)-4,5,6,7-tetrahydropyrazolo[1,5-a]pyrimidine-3-carboxamide] | ≤ 1 µM
9 | Cc1ccc(C2CC(C(F)(F)F)n3ncc(C(=O)NCc4ccc5c(c4)OCO5)c3N2)cc1 (stereo not drawn) [Example 38, N-(benzo[d][1,3]dioxol-5-ylmethyl)-5-(p-tolyl)-7-(trifluoromethyl)-4,5,6,7-tetrahydropyrazolo[1,5-a]pyrimidine-3-carboxamide] | ≤ 1 µM
10 | CCc1ccc([C@H]2C[C@@H](C(F)(F)F)n3ncc(C(=O)NCc4ncc(C)cc4F)c3N2)cc1 [Example 106, (5R,7S)-5-(4-ethylphenyl)-N-((3-fluoro-5-methylpyridin-2-yl)methyl)-7-(trifluoromethyl)-4,5,6,7-tetrahydropyrazolo[1,5-a]pyrimidine-3-carboxamide] | 1 to 2 µM (≈ 0.461 to 0.923 µg/mL)
11 | CCc1ccc([C@H]2C[C@@H](C(C)(C)C)n3ncc(C(=O)NCc4ccc(OC)cc4)c3N2)cc1 (relative stereo) [Example 35, Cis-7-(tert-butyl)-5-(4-ethylphenyl)-N-(4-methoxybenzyl)-4,5,6,7-tetrahydropyrazolo[1,5-a]pyrimidine-3-carboxamide] | ≤ 1 µM
12 | Cc1ccc([C@H]2C[C@@H](C(F)(F)F)n3ncc(C(=O)NCc4ccc(F)c(F)c4)c3N2)cc1 (relative stereo) [Example 31, Cis-N-(3,4-difluorobenzyl)-5-(p-tolyl)-7-(trifluoromethyl)-4,5,6,7-tetrahydropyrazolo[1,5-a]pyrimidine-3-carboxamide] | ≤ 1 µM
13 | O=C(NCc1ccc2c(c1)OCO2)c1cnn2c1N[C@@H](c1ccc(Br)cc1)C[C@H]2C(F)(F)F (relative stereo) [Example 22, Cis-N-(benzo[d][1,3]dioxol-5-ylmethyl)-5-(4-bromophenyl)-7-(trifluoromethyl)-4,5,6,7-tetrahydropyrazolo[1,5-a]pyrimidine-3-carboxamide] | ≤ 1 µM
14 | CCc1ccc([C@H]2C[C@@H](C(F)(F)F)n3ncc(C(=O)NCc4ccccc4Cl)c3N2)cc1 (relative stereo) [Example 73, Cis-N-(2-chlorobenzyl)-5-(4-ethylphenyl)-7-(trifluoromethyl)-4,5,6,7-tetrahydropyrazolo[1,5-a]pyrimidine-3-carboxamide] | 1 to 2 µM (≈ 0.463 to 0.926 µg/mL)
15 | CCc1ccc([C@H]2C[C@@H](C(F)(F)F)n3ncc(C(=O)NCc4ccc(OC)c(OC)c4)c3N2)cc1 (relative stereo) [Example 47, Cis-N-(3,4-dimethoxybenzyl)-5-(4-ethylphenyl)-7-(trifluoromethyl)-4,5,6,7-tetrahydropyrazolo[1,5-a]pyrimidine-3-carboxamide] | > 2 µM
16 | COc1ccc(CNC(=O)c2cnn3c2N[C@@H](c2ccc(Br)cc2)C[C@H]3C(F)(F)F)cc1 (relative stereo) [Example 42, Cis-5-(4-bromophenyl)-N-(4-methoxybenzyl)-7-(trifluoromethyl)-4,5,6,7-tetrahydropyrazolo[1,5-a]pyrimidine-3-carboxamide] | > 2 µM
17 | CCc1ccc([C@H]2C[C@@H](C(F)(F)F)n3ncc(C(=O)NCc4ccc(C)c(F)c4)c3N2)cc1 (relative stereo) [Example 64, Cis-5-(4-ethylphenyl)-N-(3-fluoro-4-methylbenzyl)-7-(trifluoromethyl)-4,5,6,7-tetrahydropyrazolo[1,5-a]pyrimidine-3-carboxamide] | ≤ 1 µM
18 | CCc1ccc([C@H]2C[C@@H](C(F)(F)F)n3ncc(C(=O)NCc4ccccc4OC)c3N2)cc1 (relative stereo) [Example 45, Cis-5-(4-ethylphenyl)-N-(2-methoxybenzyl)-7-(trifluoromethyl)-4,5,6,7-tetrahydropyrazolo[1,5-a]pyrimidine-3-carboxamide] | > 2 µM
19 | Cc1ccc([C@H]2C[C@@H](C(F)(F)F)n3ncc(C(=O)NCc4ccc(N(C)C)cc4)c3N2)cc1 (relative stereo) [Example 49, Cis-N-(4-(dimethylamino)benzyl)-5-(p-tolyl)-7-(trifluoromethyl)-4,5,6,7-tetrahydropyrazolo[1,5-a]pyrimidine-3-carboxamide] | > 2 µM
20 | CCc1ccc([C@H]2C[C@@H](C(F)(F)F)n3ncc(C(=O)NCc4ccc(Cl)cc4)c3N2)cc1 (relative stereo) [Example 67, Cis-N-(4-chlorobenzyl)-5-(4-ethylphenyl)-7-(trifluoromethyl)-4,5,6,7-tetrahydropyrazolo[1,5-a]pyrimidine-3-carboxamide] | ≤ 1 µM
21 | CCc1ccc([C@H]2C[C@@H](C(F)(F)F)n3ncc(C(=O)NCc4ccc(Cl)nc4)c3N2)cc1 (relative stereo) [Example 76, Cis-N-((6-chloropyridin-3-yl)methyl)-5-(4-ethylphenyl)-7-(trifluoromethyl)-4,5,6,7-tetrahydropyrazolo[1,5-a]pyrimidine-3-carboxamide] | 1 to 2 µM (≈ 0.464 to 0.928 µg/mL)
